Assay results published in the kinase profiling compilation of Christmann-Franck et al. (2016).

The molecules below were run against PRKG2 (human) (UniProt Q13237) (assay: radiometric filter-binding kinase assay, Kinase HotSpot). Settings: compound 0.5 µM; ATP 10 µM.
In the case of O=C1NC(=O)c2cc(Nc3ccc(F)cc3)c(Nc3ccc(F)cc3)cc21, the residual activity is reported as 83.3%. With CCCCc1c(-c2ccc(O)cc2)[nH]c2nccnc12 the residual activity was 92.6%. N#CCCc1ccc2c(c1)-c1[nH]c3ccc([N+](=O)[O-])cc3c1CC(=O)N2 showed a residual activity of 93.9%. Molecule O=c1c2ccccc2[nH]c(=S)n1CCN1CCC(=C(c2ccc(F)cc2)c2ccc(F)cc2)CC1 has a residual activity of 104%.

These molecules were tested against EPHB2 (human) (UniProt P29323) in the same assay as above. Settings: compound 0.5 µM; ATP 10 µM.
Sequence of EPHB2 (human) (P29323 whole entry, looked up): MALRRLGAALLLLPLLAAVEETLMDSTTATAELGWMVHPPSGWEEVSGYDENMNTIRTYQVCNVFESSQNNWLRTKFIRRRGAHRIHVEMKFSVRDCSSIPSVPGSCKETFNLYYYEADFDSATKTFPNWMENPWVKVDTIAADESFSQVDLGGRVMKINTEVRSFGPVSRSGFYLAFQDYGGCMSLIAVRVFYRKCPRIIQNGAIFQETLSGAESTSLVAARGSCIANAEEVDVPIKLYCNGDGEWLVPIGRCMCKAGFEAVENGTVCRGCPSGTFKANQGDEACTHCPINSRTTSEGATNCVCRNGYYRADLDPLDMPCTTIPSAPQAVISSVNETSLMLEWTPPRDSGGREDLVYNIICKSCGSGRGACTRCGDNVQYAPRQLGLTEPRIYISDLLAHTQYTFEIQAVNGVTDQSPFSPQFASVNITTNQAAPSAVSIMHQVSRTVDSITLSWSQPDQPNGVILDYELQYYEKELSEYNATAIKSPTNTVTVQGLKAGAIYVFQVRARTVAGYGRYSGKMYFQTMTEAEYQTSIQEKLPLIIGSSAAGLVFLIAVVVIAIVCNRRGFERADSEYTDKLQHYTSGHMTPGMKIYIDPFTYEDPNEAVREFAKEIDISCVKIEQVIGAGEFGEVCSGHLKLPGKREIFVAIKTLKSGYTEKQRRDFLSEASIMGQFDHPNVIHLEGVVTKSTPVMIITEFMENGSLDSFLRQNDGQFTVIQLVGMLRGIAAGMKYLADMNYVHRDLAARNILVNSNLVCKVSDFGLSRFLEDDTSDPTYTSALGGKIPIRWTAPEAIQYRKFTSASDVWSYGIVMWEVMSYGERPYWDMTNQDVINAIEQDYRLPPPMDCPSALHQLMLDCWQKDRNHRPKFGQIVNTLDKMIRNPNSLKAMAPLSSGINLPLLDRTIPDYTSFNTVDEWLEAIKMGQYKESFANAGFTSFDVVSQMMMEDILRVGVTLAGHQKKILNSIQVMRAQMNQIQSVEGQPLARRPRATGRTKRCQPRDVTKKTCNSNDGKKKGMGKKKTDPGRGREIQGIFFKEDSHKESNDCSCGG
For O=C1NC(=O)c2cc(Nc3ccc(F)cc3)c(Nc3ccc(F)cc3)cc21, the residual activity was 89.3%. Work on CCCCc1c(-c2ccc(O)cc2)[nH]c2nccnc12 yielded a residual activity of 92.3%. Molecule N#CCCc1ccc2c(c1)-c1[nH]c3ccc([N+](=O)[O-])cc3c1CC(=O)N2 has a residual activity of 98.5%. O=c1c2ccccc2[nH]c(=S)n1CCN1CCC(=C(c2ccc(F)cc2)c2ccc(F)cc2)CC1 gave a residual activity of 92.1%.

Each molecule was assayed against MAPKAPK3 (human) (UniProt Q16644) in the same assay as above. Settings: compound 0.5 µM; ATP 10 µM.
Sequence of MAPKAPK3 (human) (Q16644 whole entry, looked up): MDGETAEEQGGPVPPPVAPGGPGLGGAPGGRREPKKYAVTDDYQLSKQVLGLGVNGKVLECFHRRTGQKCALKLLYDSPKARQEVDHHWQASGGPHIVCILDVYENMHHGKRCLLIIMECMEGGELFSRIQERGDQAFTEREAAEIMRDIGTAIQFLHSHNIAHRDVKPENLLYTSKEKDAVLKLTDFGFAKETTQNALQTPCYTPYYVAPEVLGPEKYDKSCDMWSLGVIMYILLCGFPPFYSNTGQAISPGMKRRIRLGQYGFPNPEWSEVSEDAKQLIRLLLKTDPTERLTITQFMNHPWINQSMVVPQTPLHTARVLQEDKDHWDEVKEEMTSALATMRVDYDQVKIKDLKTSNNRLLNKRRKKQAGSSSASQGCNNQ
For O=C1NC(=O)c2cc(Nc3ccc(F)cc3)c(Nc3ccc(F)cc3)cc21, the residual activity was 95.9%. CCCCc1c(-c2ccc(O)cc2)[nH]c2nccnc12 gave a residual activity of 92.8%. With N#CCCc1ccc2c(c1)-c1[nH]c3ccc([N+](=O)[O-])cc3c1CC(=O)N2 the residual activity was 96.8%. With O=c1c2ccccc2[nH]c(=S)n1CCN1CCC(=C(c2ccc(F)cc2)c2ccc(F)cc2)CC1 the residual activity was 109%.

What follows are molecules tested against MAPK9 (human) (UniProt P45984) in the same assay as above. Settings: compound 0.5 µM; ATP 10 µM.
Molecule O=C1NC(=O)c2cc(Nc3ccc(F)cc3)c(Nc3ccc(F)cc3)cc21 has a residual activity of 61.4%. Molecule CCCCc1c(-c2ccc(O)cc2)[nH]c2nccnc12 has a residual activity of 90.2%. N#CCCc1ccc2c(c1)-c1[nH]c3ccc([N+](=O)[O-])cc3c1CC(=O)N2 gave a residual activity of 97.1%. In the case of O=c1c2ccccc2[nH]c(=S)n1CCN1CCC(=C(c2ccc(F)cc2)c2ccc(F)cc2)CC1, the residual activity is reported as 97%.

These molecules were tested against PRKD2 (human) (UniProt Q9BZL6) in the same assay as above. Settings: compound 0.5 µM; ATP 10 µM.
O=C1NC(=O)c2cc(Nc3ccc(F)cc3)c(Nc3ccc(F)cc3)cc21 was tested, and the residual activity was 86.8%. Molecule CCCCc1c(-c2ccc(O)cc2)[nH]c2nccnc12 has a residual activity of 95.3%. N#CCCc1ccc2c(c1)-c1[nH]c3ccc([N+](=O)[O-])cc3c1CC(=O)N2 showed a residual activity of 94.2%. O=c1c2ccccc2[nH]c(=S)n1CCN1CCC(=C(c2ccc(F)cc2)c2ccc(F)cc2)CC1 was tested, and the residual activity was 98.9%.

What follows are molecules tested against MATK (human) (UniProt P42679) in the same assay as above. Settings: compound 0.5 µM; ATP 10 µM.
Sequence of MATK (human) (P42679 whole entry, looked up): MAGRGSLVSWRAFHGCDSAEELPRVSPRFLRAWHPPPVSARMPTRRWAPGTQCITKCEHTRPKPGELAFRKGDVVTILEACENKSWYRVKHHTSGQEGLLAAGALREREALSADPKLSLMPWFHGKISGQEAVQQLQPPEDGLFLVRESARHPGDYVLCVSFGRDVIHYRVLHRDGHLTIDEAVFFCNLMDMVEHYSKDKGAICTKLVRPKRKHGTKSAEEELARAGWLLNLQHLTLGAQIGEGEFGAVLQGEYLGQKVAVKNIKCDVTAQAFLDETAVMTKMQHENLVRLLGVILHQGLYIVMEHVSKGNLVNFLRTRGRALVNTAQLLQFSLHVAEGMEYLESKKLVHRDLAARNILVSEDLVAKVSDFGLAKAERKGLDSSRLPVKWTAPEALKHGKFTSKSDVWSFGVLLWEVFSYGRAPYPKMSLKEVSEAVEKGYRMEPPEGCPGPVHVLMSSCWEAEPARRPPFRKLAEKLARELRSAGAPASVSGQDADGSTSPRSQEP
In the case of O=C1NC(=O)c2cc(Nc3ccc(F)cc3)c(Nc3ccc(F)cc3)cc21, the residual activity is reported as 93.5%. For CCCCc1c(-c2ccc(O)cc2)[nH]c2nccnc12, the residual activity was 109%. For N#CCCc1ccc2c(c1)-c1[nH]c3ccc([N+](=O)[O-])cc3c1CC(=O)N2, the residual activity was 101%. With O=c1c2ccccc2[nH]c(=S)n1CCN1CCC(=C(c2ccc(F)cc2)c2ccc(F)cc2)CC1 the residual activity was 92.9%.

These molecules were tested against PRKCD (human) (UniProt Q05655) in the same assay as above. Settings: compound 0.5 µM; ATP 10 µM.
Sequence of PRKCD (human) (Q05655 whole entry, looked up): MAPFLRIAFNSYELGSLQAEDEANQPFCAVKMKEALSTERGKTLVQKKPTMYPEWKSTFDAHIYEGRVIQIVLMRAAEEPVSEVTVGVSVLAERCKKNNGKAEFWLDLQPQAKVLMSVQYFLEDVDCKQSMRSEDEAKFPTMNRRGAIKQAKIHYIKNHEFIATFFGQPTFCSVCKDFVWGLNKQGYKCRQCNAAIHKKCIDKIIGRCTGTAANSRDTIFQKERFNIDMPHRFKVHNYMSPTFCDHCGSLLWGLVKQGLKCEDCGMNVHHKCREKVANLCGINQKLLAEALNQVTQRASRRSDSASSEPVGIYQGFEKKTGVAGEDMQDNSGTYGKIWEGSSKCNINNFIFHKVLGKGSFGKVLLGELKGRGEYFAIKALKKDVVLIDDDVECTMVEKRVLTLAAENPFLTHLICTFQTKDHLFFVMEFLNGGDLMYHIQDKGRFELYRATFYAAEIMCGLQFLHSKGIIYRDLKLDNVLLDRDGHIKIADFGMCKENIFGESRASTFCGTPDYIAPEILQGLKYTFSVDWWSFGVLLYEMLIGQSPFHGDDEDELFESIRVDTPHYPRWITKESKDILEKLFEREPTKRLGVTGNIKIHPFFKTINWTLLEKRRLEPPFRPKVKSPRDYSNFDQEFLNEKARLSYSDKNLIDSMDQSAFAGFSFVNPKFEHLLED
O=C1NC(=O)c2cc(Nc3ccc(F)cc3)c(Nc3ccc(F)cc3)cc21 showed a residual activity of 98.2%. With CCCCc1c(-c2ccc(O)cc2)[nH]c2nccnc12 the residual activity was 102%. N#CCCc1ccc2c(c1)-c1[nH]c3ccc([N+](=O)[O-])cc3c1CC(=O)N2 was tested, and the residual activity was 74.9%. With O=c1c2ccccc2[nH]c(=S)n1CCN1CCC(=C(c2ccc(F)cc2)c2ccc(F)cc2)CC1 the residual activity was 95.7%.

These molecules were tested against MAPK8 (human) (UniProt P45983) in the same assay as above. Settings: compound 0.5 µM; ATP 10 µM.
O=C1NC(=O)c2cc(Nc3ccc(F)cc3)c(Nc3ccc(F)cc3)cc21 gave a residual activity of 91.4%. CCCCc1c(-c2ccc(O)cc2)[nH]c2nccnc12 showed a residual activity of 81.9%. N#CCCc1ccc2c(c1)-c1[nH]c3ccc([N+](=O)[O-])cc3c1CC(=O)N2 gave a residual activity of 93.1%. O=c1c2ccccc2[nH]c(=S)n1CCN1CCC(=C(c2ccc(F)cc2)c2ccc(F)cc2)CC1 was tested, and the residual activity was 98.9%.

The molecules below were run against PRKCI (human) (UniProt P41743) in the same assay as above. Settings: compound 0.5 µM; ATP 10 µM.
Work on O=C1NC(=O)c2cc(Nc3ccc(F)cc3)c(Nc3ccc(F)cc3)cc21 yielded a residual activity of 89%. CCCCc1c(-c2ccc(O)cc2)[nH]c2nccnc12 gave a residual activity of 99.4%. Work on N#CCCc1ccc2c(c1)-c1[nH]c3ccc([N+](=O)[O-])cc3c1CC(=O)N2 yielded a residual activity of 65.3%. For O=c1c2ccccc2[nH]c(=S)n1CCN1CCC(=C(c2ccc(F)cc2)c2ccc(F)cc2)CC1, the residual activity was 96.3%.

What follows are molecules tested against PKN2 (human) (UniProt Q16513) in the same assay as above. Settings: compound 0.5 µM; ATP 10 µM.
For O=C1NC(=O)c2cc(Nc3ccc(F)cc3)c(Nc3ccc(F)cc3)cc21, the residual activity was 102%. With CCCCc1c(-c2ccc(O)cc2)[nH]c2nccnc12 the residual activity was 82.4%. N#CCCc1ccc2c(c1)-c1[nH]c3ccc([N+](=O)[O-])cc3c1CC(=O)N2 showed a residual activity of 77.9%. In the case of O=c1c2ccccc2[nH]c(=S)n1CCN1CCC(=C(c2ccc(F)cc2)c2ccc(F)cc2)CC1, the residual activity is reported as 97.2%.

These molecules were tested against DAPK2 (human) (UniProt Q9UIK4) in the same assay as above. Settings: compound 0.5 µM; ATP 10 µM.
Sequence of DAPK2 (human) (Q9UIK4 whole entry, looked up): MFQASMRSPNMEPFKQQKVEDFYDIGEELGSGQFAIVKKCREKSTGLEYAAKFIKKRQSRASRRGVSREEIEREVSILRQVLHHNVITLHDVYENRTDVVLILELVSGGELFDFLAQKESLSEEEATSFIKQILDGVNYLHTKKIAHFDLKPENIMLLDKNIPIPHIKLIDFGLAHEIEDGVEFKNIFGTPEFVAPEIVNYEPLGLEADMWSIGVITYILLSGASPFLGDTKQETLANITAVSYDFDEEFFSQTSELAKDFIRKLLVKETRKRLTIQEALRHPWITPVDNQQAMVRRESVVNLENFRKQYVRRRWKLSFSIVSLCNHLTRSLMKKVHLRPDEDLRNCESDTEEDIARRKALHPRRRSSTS
Work on O=C1NC(=O)c2cc(Nc3ccc(F)cc3)c(Nc3ccc(F)cc3)cc21 yielded a residual activity of 96.7%. CCCCc1c(-c2ccc(O)cc2)[nH]c2nccnc12 gave a residual activity of 101%. Molecule N#CCCc1ccc2c(c1)-c1[nH]c3ccc([N+](=O)[O-])cc3c1CC(=O)N2 has a residual activity of 96.5%. O=c1c2ccccc2[nH]c(=S)n1CCN1CCC(=C(c2ccc(F)cc2)c2ccc(F)cc2)CC1 gave a residual activity of 104%.

What follows are molecules tested against GSK3A (human) (UniProt P49840) in the same assay as above. Settings: compound 0.5 µM; ATP 10 µM.
O=C1NC(=O)c2cc(Nc3ccc(F)cc3)c(Nc3ccc(F)cc3)cc21 showed a residual activity of 88.2%. In the case of CCCCc1c(-c2ccc(O)cc2)[nH]c2nccnc12, the residual activity is reported as 57.7%. Molecule N#CCCc1ccc2c(c1)-c1[nH]c3ccc([N+](=O)[O-])cc3c1CC(=O)N2 has a residual activity of 0.804%. O=c1c2ccccc2[nH]c(=S)n1CCN1CCC(=C(c2ccc(F)cc2)c2ccc(F)cc2)CC1 was tested, and the residual activity was 104%.

The molecules below were run against PKN1 (human) (UniProt Q16512) in the same assay as above. Settings: compound 0.5 µM; ATP 10 µM.
Sequence of PKN1 (human) (Q16512 whole entry, looked up): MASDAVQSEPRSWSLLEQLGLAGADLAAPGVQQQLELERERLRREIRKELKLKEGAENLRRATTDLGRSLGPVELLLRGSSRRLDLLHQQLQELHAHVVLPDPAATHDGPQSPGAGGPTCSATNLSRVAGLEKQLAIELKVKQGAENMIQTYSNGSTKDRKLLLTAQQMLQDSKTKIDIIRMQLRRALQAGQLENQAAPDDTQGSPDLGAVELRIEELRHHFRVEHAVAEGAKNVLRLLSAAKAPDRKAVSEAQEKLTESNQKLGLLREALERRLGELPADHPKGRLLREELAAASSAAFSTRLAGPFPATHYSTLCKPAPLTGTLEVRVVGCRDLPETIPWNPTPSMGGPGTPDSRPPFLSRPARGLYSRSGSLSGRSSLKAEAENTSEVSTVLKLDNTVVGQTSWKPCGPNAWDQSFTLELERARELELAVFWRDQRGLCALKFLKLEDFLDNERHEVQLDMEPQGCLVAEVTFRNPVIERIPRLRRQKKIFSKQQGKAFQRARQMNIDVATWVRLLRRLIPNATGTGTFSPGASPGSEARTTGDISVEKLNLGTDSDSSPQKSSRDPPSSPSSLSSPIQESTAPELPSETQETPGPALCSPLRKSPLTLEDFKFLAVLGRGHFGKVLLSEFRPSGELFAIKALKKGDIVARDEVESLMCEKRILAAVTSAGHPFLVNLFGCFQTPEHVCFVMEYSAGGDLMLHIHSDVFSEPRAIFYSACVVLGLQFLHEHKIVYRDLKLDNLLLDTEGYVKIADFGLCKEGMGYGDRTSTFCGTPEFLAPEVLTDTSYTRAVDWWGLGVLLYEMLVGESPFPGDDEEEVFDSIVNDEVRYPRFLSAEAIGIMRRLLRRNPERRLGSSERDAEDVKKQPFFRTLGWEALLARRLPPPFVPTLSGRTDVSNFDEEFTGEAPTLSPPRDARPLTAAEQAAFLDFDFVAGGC
O=C1NC(=O)c2cc(Nc3ccc(F)cc3)c(Nc3ccc(F)cc3)cc21 was tested, and the residual activity was 97.7%. Work on CCCCc1c(-c2ccc(O)cc2)[nH]c2nccnc12 yielded a residual activity of 90.3%. For N#CCCc1ccc2c(c1)-c1[nH]c3ccc([N+](=O)[O-])cc3c1CC(=O)N2, the residual activity was 78%. With O=c1c2ccccc2[nH]c(=S)n1CCN1CCC(=C(c2ccc(F)cc2)c2ccc(F)cc2)CC1 the residual activity was 103%.

The molecules below were run against FGFR2 (human) (UniProt P21802) in the same assay as above. Settings: compound 0.5 µM; ATP 10 µM.
O=C1NC(=O)c2cc(Nc3ccc(F)cc3)c(Nc3ccc(F)cc3)cc21 gave a residual activity of 102%. Work on CCCCc1c(-c2ccc(O)cc2)[nH]c2nccnc12 yielded a residual activity of 94.5%. With N#CCCc1ccc2c(c1)-c1[nH]c3ccc([N+](=O)[O-])cc3c1CC(=O)N2 the residual activity was 93.2%. In the case of O=c1c2ccccc2[nH]c(=S)n1CCN1CCC(=C(c2ccc(F)cc2)c2ccc(F)cc2)CC1, the residual activity is reported as 101%.

What follows are molecules tested against FLT3 (human) (UniProt P36888) in the same assay as above. Settings: compound 0.5 µM; ATP 10 µM.
O=C1NC(=O)c2cc(Nc3ccc(F)cc3)c(Nc3ccc(F)cc3)cc21 showed a residual activity of 91.5%. In the case of CCCCc1c(-c2ccc(O)cc2)[nH]c2nccnc12, the residual activity is reported as 45.3%. With N#CCCc1ccc2c(c1)-c1[nH]c3ccc([N+](=O)[O-])cc3c1CC(=O)N2 the residual activity was 15.1%. Molecule O=c1c2ccccc2[nH]c(=S)n1CCN1CCC(=C(c2ccc(F)cc2)c2ccc(F)cc2)CC1 has a residual activity of 104%.

What follows are molecules tested against ITK (human) (UniProt Q08881) in the same assay as above. Settings: compound 0.5 µM; ATP 10 µM.
In the case of O=C1NC(=O)c2cc(Nc3ccc(F)cc3)c(Nc3ccc(F)cc3)cc21, the residual activity is reported as 87.3%. Molecule CCCCc1c(-c2ccc(O)cc2)[nH]c2nccnc12 has a residual activity of 104%. With N#CCCc1ccc2c(c1)-c1[nH]c3ccc([N+](=O)[O-])cc3c1CC(=O)N2 the residual activity was 99.9%. O=c1c2ccccc2[nH]c(=S)n1CCN1CCC(=C(c2ccc(F)cc2)c2ccc(F)cc2)CC1 was tested, and the residual activity was 97.1%.

These molecules were tested against YES1 (human) (UniProt P07947) in the same assay as above. Settings: compound 0.5 µM; ATP 10 µM.
Molecule O=C1NC(=O)c2cc(Nc3ccc(F)cc3)c(Nc3ccc(F)cc3)cc21 has a residual activity of 86.6%. Work on CCCCc1c(-c2ccc(O)cc2)[nH]c2nccnc12 yielded a residual activity of 46.5%. N#CCCc1ccc2c(c1)-c1[nH]c3ccc([N+](=O)[O-])cc3c1CC(=O)N2 was tested, and the residual activity was 35.8%. For O=c1c2ccccc2[nH]c(=S)n1CCN1CCC(=C(c2ccc(F)cc2)c2ccc(F)cc2)CC1, the residual activity was 99.2%.

What follows are molecules tested against IRAK4 (human) (UniProt Q9NWZ3) in the same assay as above. Settings: compound 0.5 µM; ATP 10 µM.
Sequence of IRAK4 (human) (Q9NWZ3 whole entry, looked up): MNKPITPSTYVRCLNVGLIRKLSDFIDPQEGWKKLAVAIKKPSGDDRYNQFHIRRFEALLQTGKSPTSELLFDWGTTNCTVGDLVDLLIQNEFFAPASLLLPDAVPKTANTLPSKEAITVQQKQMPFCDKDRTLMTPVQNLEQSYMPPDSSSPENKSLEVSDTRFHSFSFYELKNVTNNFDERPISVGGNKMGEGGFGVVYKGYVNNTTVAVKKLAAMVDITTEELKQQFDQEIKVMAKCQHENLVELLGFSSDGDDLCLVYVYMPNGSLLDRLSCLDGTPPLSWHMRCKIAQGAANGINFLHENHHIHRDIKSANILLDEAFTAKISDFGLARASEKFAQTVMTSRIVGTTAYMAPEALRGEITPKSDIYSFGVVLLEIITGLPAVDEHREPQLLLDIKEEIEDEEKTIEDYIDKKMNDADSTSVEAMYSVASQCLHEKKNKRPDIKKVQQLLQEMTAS
O=C1NC(=O)c2cc(Nc3ccc(F)cc3)c(Nc3ccc(F)cc3)cc21 was tested, and the residual activity was 98.1%. Work on CCCCc1c(-c2ccc(O)cc2)[nH]c2nccnc12 yielded a residual activity of 159%. With N#CCCc1ccc2c(c1)-c1[nH]c3ccc([N+](=O)[O-])cc3c1CC(=O)N2 the residual activity was 155%. O=c1c2ccccc2[nH]c(=S)n1CCN1CCC(=C(c2ccc(F)cc2)c2ccc(F)cc2)CC1 gave a residual activity of 105%.

Each molecule was assayed against PLK3 (human) (UniProt Q9H4B4) in the same assay as above. Settings: compound 0.5 µM; ATP 10 µM.
Sequence of PLK3 (human) (Q9H4B4 whole entry, looked up): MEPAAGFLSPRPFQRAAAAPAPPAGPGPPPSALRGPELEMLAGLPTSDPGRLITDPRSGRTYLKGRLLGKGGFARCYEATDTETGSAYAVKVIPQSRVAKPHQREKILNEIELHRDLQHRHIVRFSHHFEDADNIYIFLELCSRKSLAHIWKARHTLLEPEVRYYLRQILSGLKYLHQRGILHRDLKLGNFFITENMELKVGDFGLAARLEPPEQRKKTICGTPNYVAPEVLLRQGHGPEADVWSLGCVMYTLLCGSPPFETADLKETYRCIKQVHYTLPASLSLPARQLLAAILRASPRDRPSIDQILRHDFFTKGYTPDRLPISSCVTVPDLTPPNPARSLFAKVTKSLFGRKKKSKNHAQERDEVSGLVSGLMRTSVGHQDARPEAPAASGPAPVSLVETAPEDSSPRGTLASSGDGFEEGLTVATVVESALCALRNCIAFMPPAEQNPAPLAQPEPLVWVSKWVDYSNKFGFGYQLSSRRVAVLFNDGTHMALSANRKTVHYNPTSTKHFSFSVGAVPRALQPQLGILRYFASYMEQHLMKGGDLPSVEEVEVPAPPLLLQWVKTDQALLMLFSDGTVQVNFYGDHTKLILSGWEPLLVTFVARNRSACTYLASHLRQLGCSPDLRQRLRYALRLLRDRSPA
O=C1NC(=O)c2cc(Nc3ccc(F)cc3)c(Nc3ccc(F)cc3)cc21 gave a residual activity of 98%. In the case of CCCCc1c(-c2ccc(O)cc2)[nH]c2nccnc12, the residual activity is reported as 90.6%. Work on N#CCCc1ccc2c(c1)-c1[nH]c3ccc([N+](=O)[O-])cc3c1CC(=O)N2 yielded a residual activity of 99.7%. With O=c1c2ccccc2[nH]c(=S)n1CCN1CCC(=C(c2ccc(F)cc2)c2ccc(F)cc2)CC1 the residual activity was 96.2%.

The molecules below were run against SGK2 (human) (UniProt Q9HBY8) in the same assay as above. Settings: compound 0.5 µM; ATP 10 µM.
O=C1NC(=O)c2cc(Nc3ccc(F)cc3)c(Nc3ccc(F)cc3)cc21 gave a residual activity of 99.7%. CCCCc1c(-c2ccc(O)cc2)[nH]c2nccnc12 was tested, and the residual activity was 99.4%. Molecule N#CCCc1ccc2c(c1)-c1[nH]c3ccc([N+](=O)[O-])cc3c1CC(=O)N2 has a residual activity of 114%. O=c1c2ccccc2[nH]c(=S)n1CCN1CCC(=C(c2ccc(F)cc2)c2ccc(F)cc2)CC1 was tested, and the residual activity was 99.1%.

What follows are molecules tested against RIPK2 (human) (UniProt O43353) in the same assay as above. Settings: compound 0.5 µM; ATP 10 µM.
Work on O=C1NC(=O)c2cc(Nc3ccc(F)cc3)c(Nc3ccc(F)cc3)cc21 yielded a residual activity of 95%. CCCCc1c(-c2ccc(O)cc2)[nH]c2nccnc12 gave a residual activity of 58.6%. Work on N#CCCc1ccc2c(c1)-c1[nH]c3ccc([N+](=O)[O-])cc3c1CC(=O)N2 yielded a residual activity of 21.5%. In the case of O=c1c2ccccc2[nH]c(=S)n1CCN1CCC(=C(c2ccc(F)cc2)c2ccc(F)cc2)CC1, the residual activity is reported as 93.1%.
